Laboratory results published in publication PMC8279981, “A first-in-human, phase 1 study of the NEDD8 activating enzyme E1 inhibitor TAS4464 in patients with advanced solid tumors” (Investigational New Drugs, 2021).

Tested on: patients with advanced or metastatic solid tumors
Assay: Phase 1 study: treatment-related adverse events (NCI CTCAE v4.03)
Assay type: in vivo, human
Procedure: The highest non-severely toxic dose was derived from a dog toxicology study and was used to calculate a clinical starting dose of 10 mg/m^2, which corresponds to one-sixth of the human-equivalent dose. The maximum tolerated dose (MTD) of TAS4464 was investigated using an accelerated titration design. Initially, the starting TAS4464 dose was 10 mg/m^2 and was followed by an initial accelerated stage (i.e., weekly dosing phase) with 100% dose-step increments (level 1: 10 mg/m^2, level 2: 20 mg/m^2, level 3: 40 mg/m^2, and level 4: 56 mg/m^2). The 100% dose-step increments continued until the occurrence of a grade ≥ 2 drug-related toxicity within Cycle 1; dose-limiting toxicity (DLT) within Cycle 1; the next dose level reaching 60 mg/m^2; or any safety concerns. Thereafter, 40% increments were employed in the standard stage.
In the standard stage, three to six patients were to be enrolled, and the dose was escalated in 40% increments if none of the first three patients experienced a DLT. If one patient experienced a DLT, three additional patients were to be enrolled at the same dose level. If two of three or two of six patients experienced a DLT, the dose escalation was to be ceased. […] Additionally, DLT criteria regarding abnormal liver function and discontinuation criteria for study drug administration were added. The TAS4464 dose level for Day 1 of Cycle 1 was then set to 40 mg/m^2 (level 3).
Therefore, TAS4464 was administered every 7 days by 1-h intravenous infusion (± 10 min) at the dose assigned to each level. Study treatment was repeated every 28 days. The dosing regimens of each cohort are summarized in Supplementary Fig. 1.
Secondary objectives included assessment of AEs, treatment-related AEs, objective response rate (ORR), disease control rate (DCR), progression-free survival (PFS), and PK, pharmacodynamic, and pharmacogenomic (PGx) parameters with TAS4464 administration. The National Cancer Institute Common Terminology Criteria for Adverse Events (NCI CTCAE) v4.03 [17] was used to assess the severity of AEs. […] RECIST v1.1 [16] was used to determine clinical response, and all computed tomography images were assessed by the physician at the study site after completion of the imaging procedure. The ORR was defined as the percentage of patients with the best overall response of complete response (CR) or partial response (PR). The DCR was the percentage of patients with a best overall response of CR, PR, stable disease (SD), or non-CR/non-progressive disease (PD). PFS was defined as the time from the date of enrollment until the date of investigator-assessed radiological disease progression or death due to any cause, whichever occurred first.

[1] = All-grade, weekly dosing Level 1 (10 mg/m^2), n = 1
[2] = All-grade, weekly dosing Level 2 (20 mg/m^2), n = 1
[3] = All-grade, weekly dosing Level 3 (40 mg/m^2), n = 3
[4] = All-grade, weekly dosing Level 4 (56 mg/m^2), n = 5
[5] = All-grade, weekly dosing with lead-in Level 3 (20 → 40 mg/m^2), n = 3
[6] = All-grade, weekly dosing with lead-in Level 4 (20 → 56 mg/m^2), n = 3

With `CCOc1cccc(F)c1C#Cc1cn([C@@H]2O[C@H](CNS(N)(=O)=O)[C@@H](O)[C@H]2O)c2ncnc(N)c12` [TAS4464] the “Grade ≥ 2 abnormal liver function tests” value (10 or 20 mg/m^2 weekly doses) was “did not occur”, the “Grade ≥ 2 abnormal liver function tests” value (40 and 56 mg/m^2 weekly doses) was “five patients” and the “AEs leading to dose reduction” value (ALT increased, weekly dosing level 4) was “one patient each”. For the same compound, the “AEs leading to treatment discontinuation” value (AST and ALT increased, weekly dosing with lead-in period level 4) was “one patient each”, the “ALP increased (treatment-related adverse event)” value (shortened to “ALP increased”) (All-grade, Total, N = 16) was 7 (43.8) n (%) and the “ALT increased (treatment-related adverse event)” value (“ALT increased” below) (All-grade, Total, N = 16) was 11 (68.8) n (%). For the same compound, the “AST increased (treatment-related adverse event)” value (from here on “AST increased”) (All-grade, Total, N = 16) was 10 (62.5) n (%), the “Anemia (treatment-related adverse event)” value (All-grade, Total, N = 16) was 3 (18.8) n (%) and the “Blood bilirubin increased (treatment-related adverse event)” value (shortened to “Blood bilirubin increased”) (All-grade, Total, N = 16) was 3 (18.8) n (%). For the same compound, the “Decreased appetite (treatment-related adverse event)” value (shortened to “Decreased appetite”) (All-grade, Total, N = 16) was 5 (31.3) n (%), the “Diarrhea (treatment-related adverse event)” value (“Diarrhea” below) (All-grade, Total, N = 16) was 3 (18.8) n (%) and the “Fatigue (treatment-related adverse event)” value (“Fatigue” below) (All-grade, Total, N = 16) was 2 (12.5) n (%). For the same compound, the “GGT increased (treatment-related adverse event)” value (shortened to “GGT increased”) (All-grade, Total, N = 16) was 4 (25.0) n (%), the “Hypoalbuminemia (treatment-related adverse event)” value (shortened to “Hypoalbuminemia”) (All-grade, Total, N = 16) was 2 (12.5) n (%) and the “Malaise (treatment-related adverse event)” value (“Malaise” for short) (All-grade, Total, N = 16) was 3 (18.8) n (%). The “Nausea (treatment-related adverse event)” value (All-grade, Total, N = 16) was 7 (43.8) n (%), the “Neuropathy peripheral (treatment-related adverse event)” value (“Neuropathy peripheral” below) (All-grade, Total, N = 16) was 2 (12.5) n (%) and the “Pyrexia (treatment-related adverse event)” value (“Pyrexia” for short) (All-grade, Total, N = 16) was 2 (12.5) n (%). For the same compound, the “Rash (treatment-related adverse event)” value (All-grade, Total, N = 16) was 3 (18.8) n (%), the “Vomiting (treatment-related adverse event)” value (“Vomiting” below) (All-grade, Total, N = 16) was 4 (25.0) n (%) and the “WBC decreased (treatment-related adverse event)” value (“WBC decreased” below) (All-grade, Total, N = 16) was 3 (18.8) n (%). For the same compound, the “ALP increased” value [1] was 0 n (%), the “ALT increased” value [1] was 1 (100.0) n (%) and the “AST increased” value [1] was 1 (100.0) n (%). For the same compound, the “Anemia (treatment-related adverse event)” value [1] was 0 n (%), the “Blood bilirubin increased” value [1] was 0 n (%) and the “Decreased appetite” value [1] was 0 n (%). For the same compound, the “Diarrhea” value [1] was 0 n (%), the “Fatigue” value [1] was 0 n (%) and the “GGT increased” value [1] was 0 n (%). The “Hypoalbuminemia” value [1] was 1 (100.0) n (%), the “Malaise” value [1] was 0 n (%) and the “Nausea (treatment-related adverse event)” value [1] was 0 n (%). The “Neuropathy peripheral” value [1] was 0 n (%), the “Pyrexia” value [1] was 0 n (%) and the “Rash (treatment-related adverse event)” value [1] was 0 n (%). The “Vomiting” value [1] was 0 n (%), the “WBC decreased” value [1] was 0 n (%) and the “ALP increased” value [2] was 0 n (%). The “ALT increased” value [2] was 1 (100.0) n (%), the “AST increased” value [2] was 0 n (%) and the “Anemia (treatment-related adverse event)” value [2] was 0 n (%). For the same compound, the “Blood bilirubin increased” value [2] was 0 n (%), the “Decreased appetite” value [2] was 0 n (%) and the “Diarrhea” value [2] was 0 n (%). For the same compound, the “Fatigue” value [2] was 0 n (%), the “GGT increased” value [2] was 0 n (%) and the “Hypoalbuminemia” value [2] was 0 n (%). The “Malaise” value [2] was 0 n (%), the “Nausea (treatment-related adverse event)” value [2] was 0 n (%) and the “Neuropathy peripheral” value [2] was 0 n (%). For the same compound, the “Pyrexia” value [2] was 0 n (%), the “Rash (treatment-related adverse event)” value [2] was 0 n (%) and the “Vomiting” value [2] was 0 n (%). The “WBC decreased” value [2] was 0 n (%), the “ALP increased” value [3] was 2 (66.7) n (%) and the “ALT increased” value [3] was 1 (33.3) n (%). For the same compound, the “AST increased” value [3] was 1 (33.3) n (%), the “Anemia (treatment-related adverse event)” value [3] was 0 n (%) and the “Blood bilirubin increased” value [3] was 1 (33.3) n (%). The “Decreased appetite” value [3] was 2 (66.7) n (%), the “Diarrhea” value [3] was 1 (33.3) n (%) and the “Fatigue” value [3] was 1 (33.3) n (%). The “GGT increased” value [3] was 1 (33.3) n (%), the “Hypoalbuminemia” value [3] was 1 (33.3) n (%) and the “Malaise” value [3] was 1 (33.3) n (%). The “Nausea (treatment-related adverse event)” value [3] was 2 (66.7) n (%), the “Neuropathy peripheral” value [3] was 0 n (%) and the “Pyrexia” value [3] was 0 n (%). For the same compound, the “Rash (treatment-related adverse event)” value [3] was 0 n (%), the “Vomiting” value [3] was 1 (33.3) n (%) and the “WBC decreased” value [3] was 1 (33.3) n (%). For the same compound, the “ALP increased” value [4] was 4 (80.0) n (%), the “ALT increased” value [4] was 5 (100.0) n (%) and the “AST increased” value [4] was 4 (80.0) n (%). The “Anemia (treatment-related adverse event)” value [4] was 1 (20.0) n (%), the “Blood bilirubin increased” value [4] was 2 (40.0) n (%) and the “Decreased appetite” value [4] was 2 (40.0) n (%). For the same compound, the “Diarrhea” value [4] was 2 (40.0) n (%), the “Fatigue” value [4] was 1 (20.0) n (%) and the “GGT increased” value [4] was 3 (60.0) n (%). For the same compound, the “Hypoalbuminemia” value [4] was 0 n (%), the “Malaise” value [4] was 2 (40.0) n (%) and the “Nausea (treatment-related adverse event)” value [4] was 4 (80.0) n (%). The “Neuropathy peripheral” value [4] was 2 (40.0) n (%), the “Pyrexia” value [4] was 0 n (%) and the “Rash (treatment-related adverse event)” value [4] was 2 (40.0) n (%). For the same compound, the “Vomiting” value [4] was 2 (40.0) n (%), the “WBC decreased” value [4] was 1 (20.0) n (%) and the “ALP increased” value [5] was 0 n (%). The “ALT increased” value [5] was 1 (33.3) n (%), the “AST increased” value [5] was 2 (66.7) n (%) and the “Anemia (treatment-related adverse event)” value [5] was 1 (33.3) n (%). The “Blood bilirubin increased” value [5] was 0 n (%), the “Decreased appetite” value [5] was 1 (33.3) n (%) and the “Diarrhea” value [5] was 0 n (%). The “Fatigue” value [5] was 0 n (%), the “GGT increased” value [5] was 0 n (%) and the “Hypoalbuminemia” value [5] was 0 n (%). For the same compound, the “Malaise” value [5] was 0 n (%), the “Nausea (treatment-related adverse event)” value [5] was 1 (33.3) n (%) and the “Neuropathy peripheral” value [5] was 0 n (%). The “Pyrexia” value [5] was 2 (66.7) n (%), the “Rash (treatment-related adverse event)” value [5] was 0 n (%) and the “Vomiting” value [5] was 1 (33.3) n (%). For the same compound, the “WBC decreased” value [5] was 0 n (%), the “ALP increased” value [6] was 1 (33.3) n (%) and the “ALT increased” value [6] was 2 (66.7) n (%). For the same compound, the “AST increased” value [6] was 2 (66.7) n (%), the “Anemia (treatment-related adverse event)” value [6] was 1 (33.3) n (%) and the “Blood bilirubin increased” value [6] was 0 n (%). For the same compound, the “Decreased appetite” value [6] was 0 n (%), the “Diarrhea” value [6] was 0 n (%) and the “Fatigue” value [6] was 0 n (%). The “GGT increased” value [6] was 0 n (%), the “Hypoalbuminemia” value [6] was 0 n (%) and the “Malaise” value [6] was 0 n (%). For the same compound, the “Nausea (treatment-related adverse event)” value [6] was 0 n (%), the “Neuropathy peripheral” value [6] was 0 n (%) and the “Pyrexia” value [6] was 0 n (%). The “Rash (treatment-related adverse event)” value [6] was 1 (33.3) n (%), the “Vomiting” value [6] was 0 n (%) and the “WBC decreased” value [6] was 1 (33.3) n (%). For the same compound, the “ALP increased” value (Grade ≥ 3, Total, N = 16) was 1 (6.3) n (%), the “ALT increased” value (Grade ≥ 3, Total, N = 16) was 5 (31.3) n (%) and the “AST increased” value (Grade ≥ 3, Total, N = 16) was 5 (31.3) n (%).
